According to PubChem BioAssay AID2060325 (Molecular Pharmacology Branch, DTP, NCI, 2025):

Test system: SK-OV-3 multi-cell spheroids, viability
Assay: Anticancer human tumor SK-OV-3 cell line growth inhibition [IpAb];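 as to viability, T/C: viability read after seven days of drug exposure; percent of DMSO vehicle control luminescence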
Settings: for IC50: curve of first compound; for viability, T/C: stronger effect = lower value
Method in brief: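 Spheroids of 60% malignant cells, 25% HUVEC and 15% MSC were exposed to targeted agents combined with ipatasertib or abemaciclib. Doses started at or near clinical Cmax (10 microM when unknown) and fell in half-log steps.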

[1] = second compound 0.01 µM, first compound 0.0316 µM
[2] = second compound 0.01 µM, first compound 0.1 µM
[3] = second compound 0.01 µM, first compound 0.316 µM
[4] = second compound 0.01 µM, first compound 1 µM
[5] = second compound 0.0316 µM, first compound 0.0316 µM
[6] = second compound 0.0316 µM, first compound 0.1 µM
[7] = second compound 0.0316 µM, first compound 0.316 µM
[8] = second compound 0.0316 µM, first compound 1 µM
[9] = second compound 0.1 µM, first compound 0.0316 µM
[10] = second compound 0.1 µM, first compound 0.1 µM
[11] = second compound 0.1 µM, first compound 0.316 µM
[12] = second compound 0.1 µM, first compound 1 µM
[13] = second compound 0.316 µM, first compound 0.0316 µM
[14] = second compound 0.316 µM, first compound 0.1 µM
[15] = second compound 0.316 µM, first compound 0.316 µM
[16] = second compound 0.316 µM, first compound 1 µM
[17] = second compound 1 µM, first compound 0.0316 µM
[18] = second compound 1 µM, first compound 0.1 µM
[19] = second compound 1 µM, first compound 0.316 µM
[20] = second compound 1 µM, first compound 1 µM
[21] = second compound 0.01 µM, first compound 3.16 µM
[22] = second compound 0.01 µM, first compound 10 µM
[23] = second compound 0.0316 µM, first compound 3.16 µM
[24] = second compound 0.0316 µM, first compound 10 µM
[25] = second compound 0.1 µM, first compound 3.16 µM
[26] = second compound 0.1 µM, first compound 10 µM
[27] = second compound 0.316 µM, first compound 3.16 µM
[28] = second compound 0.316 µM, first compound 10 µM
[29] = second compound 1 µM, first compound 3.16 µM
[30] = second compound 1 µM, first compound 10 µM

COc1c(OCCCN2CCOCC2)ccc2c3n(c(=NC(=O)c4cnc(N)nc4)nc12)CCN3 + CCN1CCN(Cc2ccc(Nc3ncc(F)c(-c4cc(F)c5nc(C)n(C(C)C)c5c4)n3)nc2)CC1
IC50 (second compound 0.01 µM): 0.00639 µM | IC50 (second compound 0.0316 µM): 0.00418 µM | IC50 (second compound 0.1 µM): < 0.00316 µM | IC50 (second compound 0.316 µM): < 0.00316 µM | IC50 (second compound 1 µM): < 0.00316 µM | viability, T/C (second compound 0.01 µM, first compound 0.00316 µM): 68% | viability, T/C (second compound 0.01 µM, first compound 0.01 µM): 38.6% | viability, T/C [1]: 12.6% | viability, T/C [2]: 7.16% | viability, T/C [3]: 5.33% | viability, T/C [4]: 3.04% | viability, T/C (second compound 0.0316 µM, first compound 0.00316 µM): 56.2% | viability, T/C (second compound 0.0316 µM, first compound 0.01 µM): 30.5% | viability, T/C [5]: 9.9% | viability, T/C [6]: 6.3% | viability, T/C [7]: 5% | viability, T/C [8]: 2.92% | viability, T/C (second compound 0.1 µM, first compound 0.00316 µM): 43% | viability, T/C (second compound 0.1 µM, first compound 0.01 µM): 23.7% | viability, T/C [9]: 10.4% | viability, T/C [10]: 5.9% | viability, T/C [11]: 5.13% | viability, T/C [12]: 2.59% | viability, T/C (second compound 0.316 µM, first compound 0.00316 µM): 42.1% | viability, T/C (second compound 0.316 µM, first compound 0.01 µM): 22.4% | viability, T/C [13]: 9.73% | viability, T/C [14]: 6.47% | viability, T/C [15]: 5.55% | viability, T/C [16]: 3.33% | viability, T/C (second compound 1 µM, first compound 0.00316 µM): 40.2% | viability, T/C (second compound 1 µM, first compound 0.01 µM): 23.2% | viability, T/C [17]: 10.2% | viability, T/C [18]: 6.83% | viability, T/C [19]: 5.51% | viability, T/C [20]: 4.14%

Cc1nc(NC(=O)N2CCCC2C(N)=O)sc1-c1ccnc(C(C)(C)C(F)(F)F)c1 (stereo not given) + CCN1CCN(Cc2ccc(Nc3ncc(F)c(-c4cc(F)c5nc(C)n(C(C)C)c5c4)n3)nc2)CC1
IC50 (second compound 0.01 µM): 0.239 µM | IC50 (second compound 0.0316 µM): 0.111 µM | IC50 (second compound 0.1 µM): 0.0334 µM | IC50 (second compound 0.316 µM): < 0.0316 µM | IC50 (second compound 1 µM): < 0.0316 µM | viability, T/C [1]: 82.9% | viability, T/C [2]: 70% | viability, T/C [3]: 43.1% | viability, T/C [4]: 20.7% | viability, T/C [21]: 9.47% | viability, T/C [22]: 5.17% | viability, T/C [5]: 66.5% | viability, T/C [6]: 52.3% | viability, T/C [7]: 31.7% | viability, T/C [8]: 17.5% | viability, T/C [23]: 8.57% | viability, T/C [24]: 4.47% | viability, T/C [9]: 50.1% | viability, T/C [10]: 40.5% | viability, T/C [11]: 23.9% | viability, T/C [12]: 15.6% | viability, T/C [25]: 9.26% | viability, T/C [26]: 4.48% | viability, T/C [13]: 43.2% | viability, T/C [14]: 37.1% | viability, T/C [15]: 28.4% | viability, T/C [16]: 15.7% | viability, T/C [27]: 7.93% | viability, T/C [28]: 5.24% | viability, T/C [17]: 39.5% | viability, T/C [18]: 34.7% | viability, T/C [19]: 23.9% | viability, T/C [20]: 15.9% | viability, T/C [29]: 9.43% | viability, T/C [30]: 4.78%

Cn1nccc1Nc1nccc(-c2ccn(C(CO)c3ccc(Cl)c(F)c3)c(=O)c2)n1 (stereo not given) + CCN1CCN(Cc2ccc(Nc3ncc(F)c(-c4cc(F)c5nc(C)n(C(C)C)c5c4)n3)nc2)CC1
IC50 (second compound 0.01 µM): 7.38 µM | IC50 (second compound 0.0316 µM): 6.8 µM | IC50 (second compound 0.1 µM): 9.03 µM | IC50 (second compound 0.316 µM): 4.25 µM | IC50 (second compound 1 µM): < 0.0316 µM | viability, T/C [1]: 84% | viability, T/C [2]: 98.2% | viability, T/C [3]: 105% | viability, T/C [4]: 118% | viability, T/C [21]: 91.6% | viability, T/C [22]: 35.1% | viability, T/C [5]: 71.3% | viability, T/C [6]: 80.8% | viability, T/C [7]: 84.4% | viability, T/C [8]: 102% | viability, T/C [23]: 74% | viability, T/C [24]: 38% | viability, T/C [9]: 56.2% | viability, T/C [10]: 55.9% | viability, T/C [11]: 63.2% | viability, T/C [12]: 69.6% | viability, T/C [25]: 60.3% | viability, T/C [26]: 34.3% | viability, T/C [13]: 52.1% | viability, T/C [14]: 55.9% | viability, T/C [15]: 61.1% | viability, T/C [16]: 58.8% | viability, T/C [27]: 54.4% | viability, T/C [28]: 36% | viability, T/C [17]: 40.8% | viability, T/C [18]: 48.9% | viability, T/C [19]: 52.2% | viability, T/C [20]: 60% | viability, T/C [29]: 57% | viability, T/C [30]: 40.2%
